Data as given in ChEMBL document CHEMBL5034034 (J Med Chem, 2021).
Activity calls are given as the source filed them. No cut-off for these calls is given here.

How the values were obtained:
[1] = biological target: T1, Proprotein convertase subtilisin/kexin type 9 (Homo sapiens, UniProt Q8NBP7); assay: Inhibition of human PCSK9 using Alexa Fluor […] as substrate incubated for 2 hrs by FRET assay
[2] = biological target: T1, Proprotein convertase subtilisin/kexin type 9; assay: Inhibition of human PCSK9 using Alexa Fluor […] as substrate incubated for 2 hrs by FRET plus assay
[3] = AUC(0 to infinity) in Wistar Han rat at 1 mg/kg, iv measured upto 24 hrs by LC-MS/MS analysis; format: ADME, organism-based; set-up: route intravenous, dose 1 mg/kg, time <=24; settings: in vivo
[4] = Clearance in Wistar Han rat at 1 mg/kg, iv measured upto 24 hrs by LC-MS/MS analysis; format: ADME, organism-based; settings: in vivo
[5] = Volume of distribution at steady state in Wistar Han rat at 1 mg/kg, iv measured upto 24 hrs by LC-MS/MS analysis; format: ADME, organism-based; settings: in vivo, read-out: Vdss
[6] = Half life in Wistar Han rat at 1 mg/kg, iv measured upto 24 hrs by LC-MS/MS analysis; format: ADME, organism-based; settings: in vivo
[7] = Protein binding in Wistar Han rat at 1 mg/kg, iv measured upto 24 hrs by LC-MS/MS analysis; format: ADME, organism-based; settings: in vivo, read-out: PB (converted)
[8] = Unbound clearance in Wistar Han rat at 1 mg/kg, iv measured upto 24 hrs by LC-MS/MS analysis; format: ADME, organism-based; settings: in vivo
[9] = AUC(0 to infinity) in cynomolgus monkey at 1 mg/kg, iv measured upto 72 hrs by LC-MS/MS analysis; format: ADME, organism-based, Macaca fascicularis; set-up: route intravenous, dose 1 mg/kg, time <=72; settings: in vivo
[10] = Clearance in cynomolgus monkey at 1 mg/kg, iv measured upto 72 hrs by LC-MS/MS analysis; format: ADME, organism-based, Macaca fascicularis; settings: in vivo
[11] = Volume of distribution at steady state in cynomolgus monkey at 1 mg/kg, iv measured upto 72 hrs by LC-MS/MS analysis; format: ADME, organism-based, Macaca fascicularis; settings: in vivo, read-out: Vdss
[12] = Half life in cynomolgus monkey at 1 mg/kg, iv measured upto 72 hrs by LC-MS/MS analysis; format: ADME, organism-based, Macaca fascicularis; settings: in vivo
[13] = Protein binding in cynomolgus monkey at 1 mg/kg, iv measured upto 72 hrs by LC-MS/MS analysis; format: ADME, organism-based, Macaca fascicularis; settings: in vivo, read-out: PB (converted)
[14] = Unbound clearance in cynomolgus monkey at 1 mg/kg, iv measured upto 72 hrs by LC-MS/MS analysis; format: ADME, organism-based, Macaca fascicularis; settings: in vivo
[15] = AUC(0 to infinity) in OATP knock out Wistar Han rat at 1 mg/kg, iv measured upto 24 hrs by LC-MS/MS analysis; format: ADME, organism-based; set-up: route intravenous, dose 1 mg/kg, time <=24; settings: in vivo
[16] = Clearance in OATP knock out Wistar Han rat at 1 mg/kg, iv measured upto 24 hrs by LC-MS/MS analysis; format: ADME, organism-based; settings: in vivo
[17] = Volume of distribution at steady state in OATP knock out Wistar Han rat at 1 mg/kg, iv measured upto 24 hrs by LC-MS/MS analysis; format: ADME, organism-based; settings: in vivo, read-out: Vdss
[18] = Half life in OATP knock out Wistar Han rat at 1 mg/kg, iv measured upto 24 hrs by LC-MS/MS analysis; format: ADME, organism-based; settings: in vivo
[19] = Protein binding in OATP knock out Wistar Han rat; format: ADME; settings: read-out: PB
[20] = biological target: T2, Solute carrier organic anion transporter family member 1B1 (Homo sapiens, UniProt Q9Y6L6); assay: Inhibition of OATP1B1 (unknown origin) expressed in HEK293 cells assessed as reduction in OATP 1B1-mediated [3H]-pitavastatin uptake preincubated for 30 mins followed by [3H]-pitavastatin addition and measured after 2 mins by liquid scintillation analysis; format: cell-based
T2 sequence (Q9Y6L6 whole entry): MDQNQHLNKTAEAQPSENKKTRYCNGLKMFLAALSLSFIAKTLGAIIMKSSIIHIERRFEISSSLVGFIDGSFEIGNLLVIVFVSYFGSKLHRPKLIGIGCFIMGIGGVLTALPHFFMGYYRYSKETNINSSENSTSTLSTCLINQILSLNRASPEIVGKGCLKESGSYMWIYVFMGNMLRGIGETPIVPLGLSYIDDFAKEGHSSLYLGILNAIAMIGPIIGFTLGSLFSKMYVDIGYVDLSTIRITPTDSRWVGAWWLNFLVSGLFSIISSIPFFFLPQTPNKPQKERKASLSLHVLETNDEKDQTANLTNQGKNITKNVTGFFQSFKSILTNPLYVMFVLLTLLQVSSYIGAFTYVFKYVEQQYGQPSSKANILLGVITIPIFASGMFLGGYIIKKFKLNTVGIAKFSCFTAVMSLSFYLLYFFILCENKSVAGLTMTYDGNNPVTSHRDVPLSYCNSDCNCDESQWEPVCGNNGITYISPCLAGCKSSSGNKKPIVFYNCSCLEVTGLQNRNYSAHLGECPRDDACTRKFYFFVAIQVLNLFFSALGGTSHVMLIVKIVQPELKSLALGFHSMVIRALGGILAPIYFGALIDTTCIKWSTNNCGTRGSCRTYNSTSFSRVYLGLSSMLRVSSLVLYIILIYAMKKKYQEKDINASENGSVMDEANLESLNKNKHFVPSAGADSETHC

[21] = Unbound clearance in OATP knock out Wistar Han rat at 1 mg/kg, iv measured upto 24 hrs by LC-MS/MS analysis; format: ADME, organism-based; settings: in vivo
Mast cell = assay: Induction of rat mast cells degranulation activity at 100 uM incubated for 30 mins; format: functional, tissue-based
Sus scrofa [22] = organism: Sus scrofa; assay: Stability of the compound assessed as porcine pancreatic elastase-mediated parent compound depletion by measuring parent compound remaining after 1 hr by LC-MS/MS analysis
[23] = AUC extrapolated in Wistar Han rat at 5 mg/kg, id measured upto 24 hrs by LC-MS/MS analysis; format: ADME, organism-based; settings: in vivo, other
[24] = AUC(0 to infinity) in Wistar Han rat at 5 mg/kg, id measured upto 24 hrs by LC-MS/MS analysis; format: ADME, organism-based; set-up: dose 5 mg/kg, time <=24; settings: in vivo
[25] = Metabolic stability in cynomolgus monkey whole blood assessed as half life measured upto 6 hrs by LC-MS/MS analysis; format: ADME, tissue-based, Macaca fascicularis
[26] = biological target: T1, Proprotein convertase subtilisin/kexin type 9; assay: Inhibition of human PCSK9 using Alexa Fluor […] as substrate incubated for 2 hrs by FRET ultra assay
Bos taurus = organism: Bos taurus; assay: Stability of the compound assessed as bovine pancreas alpha chymotrypsin-mediated parent compound depletion by measuring parent compound remaining after 1 hr by LC-MS/MS analysis
Sus scrofa [27] = organism: Sus scrofa; assay: Stability of the compound assessed as porcine pepsin-mediated parent compound depletion by measuring parent compound remaining after 1 hr by LC-MS/MS analysis
[28] = Stability of the compound assessed as bovine pancreatic trypsin-mediated parent compound depletion by measuring parent compound remaining after 1 hr by LC-MS/MS analysis; format: ADME, Bos taurus; settings: cattle, read-out: Stability
[29] = Cmax in Wistar Han rat at 5 mg/kg, id measured upto 24 hrs by LC-MS/MS analysis; format: ADME, organism-based; set-up: dose 5 mg/kg, time <=24; settings: in vivo
[30] = Tmax in Wistar Han rat at 5 mg/kg, id measured upto 24 hrs by LC-MS/MS analysis; format: ADME, organism-based; settings: in vivo
[31] = Bioavailability in Wistar Han rat at 5 mg/kg, id measured upto 24 hrs by LC-MS/MS analysis; format: ADME, organism-based; settings: in vivo
[32] = AUC(0 to infinity) in cynomolgus monkey at 0.2 mg/kg, iv measured upto 72 hrs by LC-MS/MS analysis; format: ADME, organism-based, Macaca fascicularis; set-up: route intravenous, dose 0.2 mg/kg, time <=72; settings: in vivo
[33] = Clearance in cynomolgus monkey at 0.2 mg/kg, iv measured upto 72 hrs by LC-MS/MS analysis; format: ADME, organism-based, Macaca fascicularis; settings: in vivo
[34] = Volume of distribution at steady state in cynomolgus monkey at 0.2 mg/kg, iv measured upto 72 hrs by LC-MS/MS analysis; format: ADME, organism-based, Macaca fascicularis; settings: in vivo, read-out: Vdss
[35] = Half life in cynomolgus monkey at 0.2 mg/kg, iv measured upto 72 hrs by LC-MS/MS analysis; format: ADME, organism-based, Macaca fascicularis; settings: in vivo
[36] = Protein binding in cynomolgus monkey at 0.2 mg/kg, iv measured upto 72 hrs by LC-MS/MS analysis; format: ADME, organism-based, Macaca fascicularis; settings: in vivo, read-out: PB (converted)
[37] = Unbound clearance in cynomolgus monkey at 0.2 mg/kg, iv measured upto 72 hrs by LC-MS/MS analysis; format: ADME, organism-based, Macaca fascicularis; settings: in vivo
[38] = Reduction in LDL-cholesterol levels in cynomolgus monkey at 0.2 mg/kg, iv after 48 hrs; format: functional, Macaca fascicularis; set-up: scale not given: the % may be the effect or the level left
Macaca fascicularis = assay: Reduction in LDL-cholesterol levels in cynomolgus monkey at 0.2 mg/kg, iv after 4 weeks; format: functional, organism-based
[39] = Reduction in unbound PCSK9 levels in cynomolgus monkey at 0.2 mg/kg, iv after 24 to 48 hrs; format: functional, Macaca fascicularis; set-up: scale not given: the % may be the effect or the level left; settings: time 24-48 hrs

T1 sequence (Q8NBP7 31-152 limits assumed): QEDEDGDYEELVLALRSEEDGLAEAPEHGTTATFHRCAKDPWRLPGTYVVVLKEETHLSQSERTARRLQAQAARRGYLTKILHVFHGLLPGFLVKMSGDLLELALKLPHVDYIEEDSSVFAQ
T1 sequence (Q8NBP7 153-692 limits assumed): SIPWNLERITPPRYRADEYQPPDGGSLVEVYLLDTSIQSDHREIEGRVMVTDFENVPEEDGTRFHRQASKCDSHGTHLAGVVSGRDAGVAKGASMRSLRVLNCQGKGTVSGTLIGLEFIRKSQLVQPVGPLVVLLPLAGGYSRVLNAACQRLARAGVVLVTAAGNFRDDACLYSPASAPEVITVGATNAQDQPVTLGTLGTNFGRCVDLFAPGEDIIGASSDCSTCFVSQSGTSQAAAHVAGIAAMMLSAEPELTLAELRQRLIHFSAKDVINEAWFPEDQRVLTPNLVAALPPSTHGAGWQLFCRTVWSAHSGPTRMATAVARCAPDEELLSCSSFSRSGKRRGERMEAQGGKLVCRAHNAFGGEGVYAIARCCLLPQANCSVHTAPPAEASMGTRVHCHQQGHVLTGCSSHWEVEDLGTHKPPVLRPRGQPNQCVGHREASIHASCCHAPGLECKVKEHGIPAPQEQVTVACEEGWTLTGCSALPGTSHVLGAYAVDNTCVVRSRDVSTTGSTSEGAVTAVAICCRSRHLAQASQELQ

## COc1ccc(C[C@@H]2NC(=O)[C@H]([C@@H](C)OC)NC(=O)[C@@H]3[C@@H]4CCN3C(=O)[C@H](Cc3c[nH]c5ccc(F)cc35)NC(=O)[C@H](Cc3cccc(c3)C/C=C/CO4)NC(=O)[C@@H](C)NC(=O)[C@H](C)NC(=O)CCSCc3cccc(c3)CSCCNC(=O)[C@]3(C)CCCN3C2=O)cc1
[1]
  Ki: 0.48 nM
[2]
  Ki: 0.39 nM
[3]
  AUC(0-inf): 0.442 µM·h
[4]
  clearance: 28.7 mL/min/kg
[5]
  Vd: 0.8 L/kg
[6]
  half-life: 2.1 h
[7]
  fraction unbound at 24 h: 0.01
[8]
  CL free: > 3000 mL/min/kg
[9]
  AUC(0-inf): 0.648 µM·h
[10]
  clearance: 19.6 mL/min/kg
[11]
  Vd: 2.1 L/kg
[12]
  half-life: 3.4 h
[13]
  fraction unbound at 72 h: 0.024
[14]
  CL free: 576 mL/min/kg
[15]
  AUC(0-inf): 2.92 µM·h
[16]
  clearance: 4.4 mL/min/kg
[17]
  Vd: 0.9 L/kg
[18]
  half-life: 3.9 h
[19]
  fraction unbound: 0.01
[20]
  EC50: 130 nM
[21]
  CL free: 453 mL/min/kg
Mast cell
  Activity: inactive

## COc1ccc(C[C@@H]2NC(=O)[C@H]([C@@H](C)O)NC(=O)[C@@H]3[C@@H]4CCN3C(=O)[C@@H]3Cc5cn(c6ccc(F)cc56)Cc5cn(nn5)-c5cc(cc(c5)CSCCC(=O)N[C@@H](C)C(=O)N[C@H](CNC(=O)CCOCCOCC[N+](C)(C)C)C(=O)N[C@@H](Cc5cccc(c5)C/C=C/CO4)C(=O)N3)CSCCNC(=O)[C@]3(C)CCCN3C2=O)cc1
Sus scrofa [22]
  Stability: 92.6%
[23]
  %AUCextra: 3%
[24]
  AUC(0-inf): 0.497 µM·h
[25]
  half-life: > 6 h
[1]
  Ki: < 0.129 nM
[2]
  Ki: 0.00736 nM
[26]
  Ki: 0.00093 nM
[20]
  EC50: 2500 nM
Bos taurus
  Stability: 95.3%
Sus scrofa [27]
  Stability: 99%
[28]
  remaining at 1 h: 100%
[29]
  Cmax: 178 nM
[30]
  Tmax: 0.3 h
[31]
  bioavailability: 1.4%
[32]
  AUC(0-inf): 0.762 µM·h
[33]
  clearance: 2.7 mL/min/kg
[34]
  Vd: 1.2 L/kg
[35]
  half-life: 10.1 h
[36]
  fraction unbound at 72 h: 0.256
[37]
  CL free: 10.6 mL/min/kg
Mast cell
  Activity: inactive
[38]
  Activity: >50%
Macaca fascicularis
  Activity: inactive
[39]
  Activity: >80%
